In patent US20260265304A1, “PEPTIDE INHIBITORS OF FOCAL ADHESION KINASE ACTIVITY AND USES THEREOF” (Arizona Board of Regents on Behalf of the University of …, priority 2019, published 2026):
Several values for one entry are separate records, joined by “and”; a condition that tells them apart may be missing. Equal values may be shown once. Positions of bridges follow the written chain, without caps; N, C: chain ends. Non-standard residues stand in square brackets, D forms with d. Residues, ends and D or L forms follow the SMILES beside them. R8 = C=CCCCCCC[C@@](C)(N)C(=O)O; R5 = C=CCCC[C@@](C)(N)C(=O)O; S5 = C=CCCC[C@](C)(N)C(=O)O

Assays:
[1] = target: T1, FAK FAT domain (paxillin-FAT binding) (Homo sapiens, UniProt Q05397); experiment: Competition fluorescence polarization (FP) assay, inhibition of TAMRA-LD2 binding to FAT; settings: read-out: FP Ki
T1 construct: FP Buffer containing 20 μM FAT and 0.1 μM TAMRA-LD2
T1 sequence (Q05397 914-1045 limits assumed): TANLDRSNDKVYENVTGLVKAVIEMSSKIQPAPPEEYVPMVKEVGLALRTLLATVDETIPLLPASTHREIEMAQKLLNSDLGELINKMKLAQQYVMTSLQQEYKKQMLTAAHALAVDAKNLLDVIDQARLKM
Method: The FP assay buffer used was 20 mM Tris, 200 mM NaCl, 0.05% β-me, 0.1% Triton X-100, 5% glycerol, and 1× Halt protease inhibitor cocktail. […] Bodipy TMR FP optical module (2100-4100) was used as the mirror.
Wells with no FAT were used as a baseline value which was subtracted from the raw values to produce ΔmP values. The plate was read at every hour for four hours to test for time differences in IC50. The titration data was processed through GraphPad Prism to produce a dose response curve and a calculated IC50 with standard error (SE). A four-parameter dose-response inhibition model was utilized and the bottom fit was constrained to the lower plateau of the curve. Ki was determined from the following calculation:
P0 is the concentration of free protein and KD is calculated from the saturation curve. 150 is calculated by the following equation:
where PT is the total protein concentration, LT is the total labeled-ligand concentration, P0 is the positive root of P0^2+(KD+LT)*P0−PT, PL0=P−P0, PL50=PL0/2, L0=LT-PL0, and L50=LT-PL50.

[2] = target: T2, FAK FAT domain (biotinylated Avitag-FAT protein) (Homo sapiens, UniProt Q05397); experiment: Surface plasmon resonance (SPR) binding to immobilised FAT protein; settings: for Kd: FAT protein immobilised, peptide 200 μM-0.01 μM, 1:1 binding model, read-out: SPR KD; for binding and inhibitory properties (SPR/FP) in words, compared to 1907: SAR discussion of SPR and FP data
T2 construct: biotinylated Avitag-FAT protein was diluted in running buffer
T2 sequence (Q05397 914-1045 limits assumed): T1 sequence (Q05397 914-1045 limits assumed)
Method: SPR binding studies were performed on a ForteBio Pioneer FE SPR system. In brief, a SADH Streptavidin in Dextran Hydrogel biosensor (ForteBio) was docked onto the flow cell and preconditioned with two injections of 10 mM NaOH, 1 M NaCl for 1 min at 50 μL/min. […] Empty channel 2 served as the reference control. After achieving a stable baseline, a concentration series (200 μM-0.01 μM) of peptide was prepared in final running buffer (100 mM Tris-HCl, 200 mM NaCl, 0.05% Tween-20, 5% DMSO) and injected using the OneStep gradient injection method at a flow rate of 75 μL/min. […] Raw SPR data were appropriately processed in Qdat software (ForteBio) by normalizing the baseline prior to injection, aligning the channels, subtraction of the reference channel, and blank subtraction. Kinetic data were fitted to a pseudo-first order 1:1 interaction binding model using to calculate KD. In addition, a steady-state model and Req data points were used to validate the binding affinity. Visual inspection of the SPR sensograms was performed to verify appropriate model fitting, lack of mass transport effects, return to baseline, and lack of irregular kinetics.

Row | Structure (SMILES) | Ki [1] | Kd [2] | binding and inhibitory properties (SPR/FP) in words, compared to 1907 [2]
1 | CC(=O)N[C@@H](CC(N)=O)C(=O)N[C@@H](CC(C)C)C(=O)N[C@@H](CO)C(=O)N[C@@H](CCC(=O)O)C(=O)N[C@]1(C)CCCCCCC=CCCC[C@@](C)(C(=O)N[C@@H](CC(N)=O)C(N)=O)NC(=O)[C@H](CCC(=O)O)NC(=O)[C@H](CC(C)C)NC(=O)[C@H](C)NC(=O)[C@H](C)NC(=O)[C@H](CCCNC(=N)N)NC(=O)[C@H](CC(=O)O)NC1=O [Peptide 1925, Ac-NLSER8DRAALES5N-NH2] (Ac-NLSE[R8]DRAALE[S5]N-NH2; staple 5-12) | 492 µM | > 200 µM | –
2 | CC(=O)N[C@@H](CO)C(=O)N[C@@H](C)C(=O)N[C@H](C(=O)N[C@@H](CCCNC(=N)N)C(=O)N[C@@H](CCC(=O)O)C(=O)N[C@@]1(C)CCCC=CCCC[C@@](C)(C(=O)N[C@@H](C)C(=O)N[C@@H](CO)C(=O)N[C@@H](CC(C)C)C(=O)N[C@@H](CO)C(=O)N[C@@H](CC(=O)O)C(N)=O)NC(=O)[C@H](CC(C)C)NC(=O)[C@H](CCC(=O)O)NC(=O)[C@H](CC(=O)O)NC1=O)[C@@H](C)O [Peptide 1917, Ac-SATRES5DELS5ASLSD-NH2] (Ac-SATRE[S5]DEL[S5]ASLSD-NH2; staple 6-10) | 6.72 µM | 4.9 µM | similar, albeit lower activity than LD2-derived 1907
3 | CC(=O)N[C@@H](CC(N)=O)C(=O)N[C@@H](CC(C)C)C(=O)N[C@@H](CCCNC(=N)N)C(=O)N[C@@H](CCC(=O)O)C(=O)N[C@@]1(C)CCCC=CCCC[C@@](C)(C(=O)N[C@@H](CCCNC(=N)N)C(=O)N[C@@H](CCC(=O)O)C(=O)N[C@@H](CC(C)C)C(=O)N[C@@H](CC(N)=O)C(N)=O)NC(=O)[C@H](CC(C)C)NC(=O)[C@H](CCCNC(=N)N)NC(=O)[C@H](CC(=O)O)NC1=O [Peptide 1931, Ac-NLRES5DRLS5RELN-NH2] (Ac-NLRE[S5]DRL[S5]RELN-NH2; staple 5-9) | 14.5 µM | 13.7 µM | –
4 | CC(=O)N[C@@H](CO)C(=O)N[C@@H](CC(C)C)C(=O)NCC(=O)N[C@@H](CO)C(=O)N[C@@H](CC(N)=O)C(=O)N[C@@H](CC(C)C)C(=O)N[C@]1(C)CCCCCCC=CCCC[C@@](C)(C(=O)N[C@@H](CCC(=O)O)C(=O)N[C@@H](CC(C)C)C(=O)N[C@@H](CC(N)=O)C(=O)N[C@@H](C)C(=O)N[C@H](C(=O)N[C@@H](CCC(N)=O)C(=O)N[C@@H](Cc2c[nH]cn2)C(N)=O)C(C)C)NC(=O)[C@H](CC(C)C)NC(=O)[C@H](CC(C)C)NC(=O)[C@H](CCCNC(=N)N)NC(=O)[C@H](CC(=O)O)NC(=O)[C@H](CC(C)C)NC(=O)[C@H](CCC(=O)O)NC1=O [Peptide 1920, Ac-SLGSNLR8ELDRLLS5ELNAVQH-NH2] (Ac-SLGSNL[R8]ELDRLL[S5]ELNAVQH-NH2; staple 7-14) | 25 µM | 7 µM and 6.95 µM | –
5 | CC(=O)N[C@@H](CC(N)=O)C(=O)N[C@]1(C)CCCC=CCCC[C@@](C)(C(=O)N[C@@H](CC(=O)O)C(=O)N[C@@H](CCCNC(=N)N)C(=O)N[C@@H](CC(C)C)C(=O)N[C@@H](CC(C)C)C(=O)N[C@@H](CC(C)C)C(=O)N[C@@H](CCC(=O)O)C(=O)N[C@@H](CC(C)C)C(=O)N[C@@H](CC(N)=O)C(N)=O)NC(=O)[C@H](CCC(=O)O)NC(=O)[C@H](CO)NC1=O [Peptide 2024] (Ac-N[R5]SE[S5]DRLLLELN-NH2; staple 2-5) | 412 µM | > 200 µM | did not show much activity compared to 1907
6 | CC(=O)N[C@@H](CC(N)=O)C(=O)N[C@@H](CC(C)C)C(=O)N[C@]1(C)CCCCCCC=CCCC[C@@](C)(C(=O)N[C@@H](CCC(=O)O)C(=O)N[C@@H](CC(C)C)C(=O)N[C@@H](CC(N)=O)C(N)=O)NC(=O)[C@H](Cc2c[nH]c3ccccc23)NC(=O)[C@H](CC(C)C)NC(=O)[C@H](CCCNC(=N)N)NC(=O)[C@H](CC(=O)O)NC(=O)[C@H](CC(C)C)NC(=O)[C@H](CCC(=O)O)NC1=O [Peptide 2007, Ac-NLR8ELDRLWS5ELN-NH2] (Ac-NL[R8]ELDRLW[S5]ELN-NH2; staple 3-10) | 190 µM | 73.1 µM | worse binding and inhibitory properties compared to 1907
7 | CC(=O)N[C@@H](CC(N)=O)C(=O)N[C@]1(C)CCCCCCC=CCCC[C@@](C)(C(=O)N[C@@H](CC(C)C)C(=O)N[C@@H](CCC(=O)O)C(=O)N[C@@H](CC(C)C)C(=O)N[C@@H](CC(N)=O)C(N)=O)NC(=O)[C@H](CC(C)C)NC(=O)[C@H](CCCNC(=N)N)NC(=O)[C@H](CC(=O)O)NC(=O)[C@H](CC(C)C)NC(=O)[C@H](CCC(=O)O)NC(=O)[C@H](CO)NC1=O [Peptide 2017, Ac-NR8SELDRLS5LELN-NH2] (Ac-N[R8]SELDRL[S5]LELN-NH2; staple 2-9) | 80.6 µM | 20.3 µM | limited activity compared to 1907
8 | CC(=O)N[C@@H](CC(N)=O)C(=O)N[C@@H](CC(C)C)C(=O)N[C@]1(C)CCCCCCC=CCCC[C@@](C)(C(=O)N[C@@H](CCC(=O)O)C(=O)N[C@@H](CC(C)C)C(=O)N[C@@H](CC(N)=O)C(N)=O)NC(=O)[C@H](CC(C)C)NC(=O)[C@H](CC(C)C)NC(=O)[C@H](CCCNC(=N)N)NC(=O)[C@H](CC(=O)O)NC(=O)[C@H](CC(C)C)NC(=O)[C@H](C)NC1=O [Peptide 2009, Ac-NLR8ALDRLLS5ELN-NH2] (Ac-NL[R8]ALDRLL[S5]ELN-NH2; staple 3-10) | 26.7 µM | 6.96 µM | –
9 | CSCC[C@@H]1NC(=O)[C@H](CC(C)C)NC(=O)[C@H](CCC(=O)O)NC(=O)[C@H](CC(=O)O)NC(=O)[C@H](CC(C)C)NC(=O)[C@H](CCC(=O)O)NC(=O)[C@](C)(NC(=O)[C@@H](NC(=O)[C@H](C)NC(=O)[C@H](CO)NC(C)=O)[C@@H](C)O)CCCCCCC=CCCC[C@@](C)(C(=O)N[C@@H](CO)C(=O)N[C@@H](CC(C)C)C(=O)N[C@@H](CO)C(=O)N[C@@H](CC(=O)O)C(N)=O)NC1=O [Peptide 1916, Ac-SATR8ELDELMS5SLSD-NH2] (Ac-SAT[R8]ELDELM[S5]SLSD-NH2; staple 4-11) | 47.5 µM | 32.3 µM | did not have comparable activity to LD2-derived 1907
10 | CC(=O)N[C@@H](CC(N)=O)C(=O)N[C@@H](CC(C)C)C(=O)N[C@@H](CO)C(=O)N[C@@H](CCC(=O)O)C(=O)N[C@@]1(C)CCCC=CCCC[C@@](C)(C(=O)N[C@@H](CC(C)C)C(=O)N[C@@H](CCC(=O)O)C(=O)N[C@@H](CC(C)C)C(=O)N[C@@H](CC(N)=O)C(N)=O)NC(=O)[C@H](CC(C)C)NC(=O)[C@H](CCCNC(=N)N)NC(=O)[C@H](CC(=O)O)NC1=O [Peptide 1919, Ac-NLSES5DRLS5LELN-NH2] (Ac-NLSE[S5]DRL[S5]LELN-NH2; staple 5-9) | 38.6 µM | 68.9 µM | did not show much activity compared to 1907
11 | CC(=O)N[C@@H](CC(N)=O)C(=O)N[C@@H](CC(C)C)C(=O)N[C@@H](CO)C(=O)N[C@@H](CCC(=O)O)C(=O)N[C@@H](CC(C)C)C(=O)N[C@@H](CC(=O)O)C(=O)N[C@@H](CCCNC(=N)N)C(=O)N[C@@H](CC(C)C)C(=O)N[C@]1(C)CCCC=CCCC[C@@](C)(C(=O)N[C@@H](CC(N)=O)C(N)=O)NC(=O)[C@H](CCC(=O)O)NC(=O)[C@H](CC(C)C)NC1=O [Peptide 1921] (Ac-NLSELDRL[R5]LE[S5]N-NH2; staple 9-12) | 492 µM | – | did not show much activity compared to 1907
12 | CC(=O)N[C@@H](CC(N)=O)C(=O)N[C@@H](CC(C)C)C(=O)N[C@]1(C)CCCCCCC=CCCC[C@@](C)(C(=O)N[C@@H](CCC(=O)O)C(=O)N[C@@H](Cc2c[nH]c3ccccc23)C(=O)N[C@@H](CC(N)=O)C(N)=O)NC(=O)[C@H](CC(C)C)NC(=O)[C@H](CC(C)C)NC(=O)[C@H](CCCNC(=N)N)NC(=O)[C@H](CC(=O)O)NC(=O)[C@H](Cc2c[nH]c3ccccc23)NC(=O)[C@H](CCC(=O)O)NC1=O [Peptide 1933, Ac-NLR8EWDRLLS5EWN-NH2] (Ac-NL[R8]EWDRLL[S5]EWN-NH2; staple 3-10) | 281 µM | 155 µM | worse binding and inhibitory properties compared to 1907
